Laboratory results taken from patent US8623879B2, “1-heterocyclyl-1,5-dihydro-pyrazolo[3,4-D] pyrimidin-4-one derivates and their use as PDE9A modulators” (Boehringer Ingelheim International GmbH, priority 2008, dated 2014).

Target: T1, human PDE9A2 (Homo sapiens, UniProt O76083)
T1 construct: made in house; host or cells: Sf9 insect cells (infected); crude lysate used as enzyme source
Experiment: PDE9A2 enzymatic activity assay (scintillation proximity assay, SPA)
Format: biochemical
Conditions: for inhibition at 10 µM: read-out: % inhibition of PDE9A2 (at 10 micromolar concentration), 10 micromolar concentration; for inhibition at 10 µM / % inhibition of PDE9A2 (at 10 micromolar concentration): values above 100% adjusted to 100%; for IC50: reported only as range 1-100 or 101-1200 nanomolar, specific value lies within range, read-out: IC50 within range [nanomolar (nM)]

T1 sequence (O76083 1-533 isoform O76083-2): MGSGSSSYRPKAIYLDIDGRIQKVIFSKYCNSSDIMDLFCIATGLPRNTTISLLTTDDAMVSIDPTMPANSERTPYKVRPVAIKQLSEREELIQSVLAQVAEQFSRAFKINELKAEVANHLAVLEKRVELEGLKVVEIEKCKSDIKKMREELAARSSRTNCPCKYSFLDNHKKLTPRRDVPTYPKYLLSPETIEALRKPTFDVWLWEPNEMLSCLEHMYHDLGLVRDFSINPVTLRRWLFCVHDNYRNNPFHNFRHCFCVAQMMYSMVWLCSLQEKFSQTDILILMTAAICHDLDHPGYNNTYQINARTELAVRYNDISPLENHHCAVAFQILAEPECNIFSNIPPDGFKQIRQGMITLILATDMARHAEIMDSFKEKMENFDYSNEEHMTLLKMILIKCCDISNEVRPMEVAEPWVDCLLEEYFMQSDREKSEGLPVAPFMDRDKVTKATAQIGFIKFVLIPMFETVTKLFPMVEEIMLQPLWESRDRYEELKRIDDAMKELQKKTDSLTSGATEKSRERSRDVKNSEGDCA

SMILES | inhibition at 10 µM | IC50 | % inhibition of PDE9A2 (at 10 micromolar concentration)
CC(C)Cc1nc2c(cnn2C2CCOC(C)C2)c(=O)[nH]1 (racemic) [Example 114] | 89% | 101 to 1200 nM | –
CC(C)Cc1nc2c(cnn2C2CCOC(C)C2)c(=O)[nH]1 (racemic) [Example 115] | – | 101 to 1200 nM | 92%
CC1CC(n2ncc3c(=O)[nH]c(Cc4ccccc4C(F)(F)F)nc32)CCO1 (racemic) [Example 116] | – | 101 to 1200 nM | 93%
CC1CC(n2ncc3c(=O)[nH]c(Cc4ccccn4)nc32)CCO1 (racemic) [Example 118] | – | 101 to 1200 nM | 89%
CC1CC(n2ncc3c(=O)[nH]c(Cc4ccccc4C#N)nc32)CCO1 (racemic) [Example 121] | 94% | 101 to 1200 nM | –
COc1cccnc1Cc1nc2c(cnn2C2CCCOC2)c(=O)[nH]1 (racemic) [Example 122] | 85% | 101 to 1200 nM | –
O=c1[nH]c(Cc2ccccn2)nc2c1cnn2C1CCOC1 (racemic) [Example 124] | 95% | 101 to 1200 nM | –
CC(C)Cc1nc2c(cnn2C2CCOCC2C)c(=O)[nH]1 (racemic) [Example 132-8] | – | 101 to 1200 nM | 94%
O=c1[nH]c(Cc2ccccn2)nc2c1cnn2C1CCCCO1 (racemic) [Example 145] | 84% | 101 to 1200 nM | –
CC(C)Cc1nc2c(cnn2C2CCCCO2)c(=O)[nH]1 (racemic) [Example 146] | 91% | 101 to 1200 nM | –
O=c1[nH]c(Cc2ccccc2C(F)(F)F)nc2c1cnn2C1CCCCO1 (racemic) [Example 147-1] | 86% | 101 to 1200 nM | –
O=c1[nH]c(CC2CC2)nc2c1cnn2C1CCCCO1 (racemic) [Example 147-2] | 87% | 101 to 1200 nM | –
CN(C)C(=O)N1CCCC(n2ncc3c(=O)[nH]c(Cc4ccccc4OC(F)(F)F)nc32)C1 (racemic) [Example 161] | 95% | 101 to 1200 nM | –
O=C(c1ccccc1)N1CCCC(n2ncc3c(=O)[nH]c(Cc4ccccc4OC(F)(F)F)nc32)C1 (racemic) [Example 163] | 97% | 101 to 1200 nM | –
CC(=O)N1CCC(n2ncc3c(=O)[nH]c(Cc4ccccc4OC(F)(F)F)nc32)C1 (racemic) [Example 164] | 98% | 101 to 1200 nM | –
CC(=O)N1CCC(n2ncc3c(=O)[nH]c(CC4CCCC4)nc32)C1 (racemic) [Example 165] | 99% | 101 to 1200 nM | –
O=C(c1ccccc1)N1CCC(n2ncc3c(=O)[nH]c(Cc4ccccc4)nc32)C1 (racemic) [Example 166] | 92% | 101 to 1200 nM | –
O=C(c1ccccc1)N1CCC(n2ncc3c(=O)[nH]c(CC4CCCC4)nc32)C1 (racemic) [Example 167] | 93% | 101 to 1200 nM | –

SMILES | inhibition at 10 µM | IC50 | % inhibition of PDE9A2 (at 10 micromolar concentration)
COc1ccccc1Cc1nc2c(cnn2C2CCN(C(C)=O)C2)c(=O)[nH]1 (racemic) [Example 168] | 90% | 101 to 1200 nM | –
O=C(c1ccccc1)N1CCC(n2ncc3c(=O)[nH]c(Cc4ccccc4OC(F)(F)F)nc32)C1 (racemic) [Example 169] | 86% | 101 to 1200 nM | –
COc1ccccc1Cc1nc2c(cnn2C2CCN(C(=O)c3ccccc3)C2)c(=O)[nH]1 (racemic) [Example 170] | 75% | 101 to 1200 nM | –
O=C(c1ccccc1)N1CCC(n2ncc3c(=O)[nH]c(CC4CCC4)nc32)C1 (racemic) [Example 171] | 100% | 101 to 1200 nM | –
O=C(c1ccccc1)N1CCCC(n2ncc3c(=O)[nH]c(Cc4ccccn4)nc32)C1 (racemic) [Example 175] | 88% | 101 to 1200 nM | –
CC(=O)N1CCCC(n2ncc3c(=O)[nH]c(Cc4ccccn4)nc32)C1 (racemic) [Example 176] | 85% | 101 to 1200 nM | –
CC(C)Cc1nc2c(cnn2C2CCCN(C(=O)c3ccccc3)C2)c(=O)[nH]1 (racemic) [Example 177] | 93% | 101 to 1200 nM | –
CCOc1ccccc1Cc1nc2c(cnn2C2CCCN(C(=O)c3ccccc3)C2)c(=O)[nH]1 (racemic) [Example 178] | 92% | 101 to 1200 nM | –
CCOc1ccccc1Cc1nc2c(cnn2C2CCCN(C(C)=O)C2)c(=O)[nH]1 (racemic) [Example 179] | 91% | 101 to 1200 nM | –
CC(=O)N1CCCC(n2ncc3c(=O)[nH]c(CC4CCC4)nc32)C1 (racemic) [Example 180] | 96% | 101 to 1200 nM | –
O=C(c1ccccc1)N1CCCC(n2ncc3c(=O)[nH]c(CC4CCCC4)nc32)C1 (racemic) [Example 183] | 99% | 1 to 100 nM | –
CC(=O)N1CCCC(n2ncc3c(=O)[nH]c(Cc4cccc(C(F)(F)F)c4)nc32)C1 (racemic) [Example 184] | 97% | 1 to 100 nM | –
O=C(Oc1ccc(F)cc1)N1CCCC(n2ncc3c(=O)[nH]c(Cc4ccccc4)nc32)C1 (racemic) [Example 185] | 100% | 1 to 100 nM | –
O=C(c1ccccc1)N1CCCC(n2ncc3c(=O)[nH]c(Cc4ccccc4F)nc32)C1 (racemic) [Example 186] | 97% | 1 to 100 nM | –
CC(=O)N1CCCC(n2ncc3c(=O)[nH]c(Cc4ccccc4F)nc32)C1 (racemic) [Example 187] | 96% | 1 to 100 nM | –
CC(=O)N1CCCC(n2ncc3c(=O)[nH]c(Cc4ccccc4OC(F)(F)F)nc32)C1 (racemic) [Example 188] | 96% | 1 to 100 nM | –
CC(=O)N1CCCC(n2ncc3c(=O)[nH]c(CC(C)C)nc32)C1 (racemic) [Example 189] | 90% | 101 to 1200 nM | –
CN(C)C(=O)N1CCC(n2ncc3c(=O)[nH]c(Cc4ccccc4)nc32)C1 (racemic) [Example 190] | 82% | 101 to 1200 nM | –

Continued, values first:

inhibition at 10 µM | IC50 | % inhibition of PDE9A2 (at 10 micromolar concentration) | SMILES
– | 1 to 100 nM | 97% | CC1CC(n2ncc3c(=O)[nH]c(CC4CCCC4)nc32)CCO1 (racemic) [Example 117]
95% | 1 to 100 nM | – | CCC(CC)Cc1nc2c(cnn2C2CCOC(C)C2)c(=O)[nH]1 (racemic) [Example 119]
95% | 1 to 100 nM | – | CC1CC(n2ncc3c(=O)[nH]c(CC4CCC4)nc32)CCO1 (racemic) [Example 120]
98% | 1 to 100 nM | – | N#Cc1ccccc1Cc1nc2c(cnn2C2CCCOC2)c(=O)[nH]1 (racemic) [Example 126]
97% | 1 to 100 nM | – | COc1ccccc1Cc1nc2c(cnn2C2CCCOC2)c(=O)[nH]1 (racemic) [Example 127]
99% | 1 to 100 nM | – | O=c1[nH]c(Cc2cccc(C(F)(F)F)c2)nc2c1cnn2C1CCCOC1 (racemic) [Example 129]
99% | 1 to 100 nM | – | CCC(CC)Cc1nc2c(cnn2C2CCCOC2)c(=O)[nH]1 (racemic) [Example 130]
97% | 1 to 100 nM | – | CC(C)Cc1nc2c(cnn2C2CCOCC2C)c(=O)[nH]1 (racemic) [Example 132-1]
100% | 1 to 100 nM | – | CC1COCCC1n1ncc2c(=O)[nH]c(CC3CCCC3)nc21 (racemic) [Example 132-2]
– | 1 to 100 nM | 100% | CC1COCCC1n1ncc2c(=O)[nH]c(CC3CCCC3)nc21 (racemic) [Example 132-5]
98% | 1 to 100 nM | – | CCC(C)Cc1nc2c(cnn2C2CCOCC2)c(=O)[nH]1 (racemic) [Example 135]
95% | 1 to 100 nM | – | O=c1[nH]c(Cc2cccc(C(F)(F)F)c2)nc2c1cnn2C1CCCCO1 (racemic) [Example 147-3]
99% | 1 to 100 nM | – | O=c1[nH]c(CC2CCCC2)nc2c1cnn2C1CCCCO1 (racemic) [Example 147]
100% | 1 to 100 nM | – | COC(=O)N1CCCC(n2ncc3c(=O)[nH]c(CC4CCCC4)nc32)C1 (racemic) [Example 154]
100% | 1 to 100 nM | – | COC(=O)N1CCCC(n2ncc3c(=O)[nH]c(Cc4ccccc4)nc32)C1 (racemic) [Example 155]
99% | 1 to 100 nM | – | COC(=O)N1CCCC(n2ncc3c(=O)[nH]c(Cc4ccccc4OC(F)(F)F)nc32)C1 (racemic) [Example 156]
97% | 1 to 100 nM | – | CC(=O)N1CCCC(n2ncc3c(=O)[nH]c(CC4CCCC4)nc32)C1 (racemic) [Example 157]
97% | 1 to 100 nM | – | CC(=O)N1CCCC(n2ncc3c(=O)[nH]c(Cc4ccccc4)nc32)C1 (racemic) [Example 158]
100% | 1 to 100 nM | – | CN(C)C(=O)N1CCCC(n2ncc3c(=O)[nH]c(Cc4ccccc4)nc32)C1 (racemic) [Example 159]
96% | 1 to 100 nM | – | CN(C)C(=O)N1CCCC(n2ncc3c(=O)[nH]c(CC4CCCC4)nc32)C1 (racemic) [Example 160]
98% | 1 to 100 nM | – | O=C(Oc1ccc(F)cc1)N1CCCC(n2ncc3c(=O)[nH]c(CC4CCCC4)nc32)C1 (racemic) [Example 162]
100% | 1 to 100 nM | – | CC(=O)N1CCC(n2ncc3c(=O)[nH]c(Cc4ccccc4)nc32)C1 (racemic) [Example 172]
96% | 1 to 100 nM | – | O=C(c1ccccc1)N1CCCC(n2ncc3c(=O)[nH]c(CC4CCC4)nc32)C1 (racemic) [Example 181]
100% | 1 to 100 nM | – | O=C(c1ccccc1)N1CCCC(n2ncc3c(=O)[nH]c(Cc4ccccc4)nc32)C1 (racemic) [Example 182]
